Assay results published in patent publication US8952128B2, “Somatostatin-dopamine chimeric analogs” (priority 2012, dated 2015).
Where two headings read alike, the source gives them in different places. Numbered stars: 1 amine (or outer) side, 2 acyl side, 3 side chain; on linkers, the order of the positions; unused ones are H or OH. Bridge positions count the residues as written; N and C are the ends. Square brackets hold non-standard residues; d marks the D form. Peptide text beside a SMILES is read from it. * marks the point of attachment. X1 = CN1C[C@H](CSCCN(CCSC[C@@H]2C[C@@H]3c4cccc5[nH]cc(c45)C[C@H]3N(C)C2)[C@H](CCCCN[*:2])C(=O)[*:1])C[C@@H]2c3cccc4[nH]cc(c34)C[C@H]21; X2 = CN1C[C@H](CSCC(=O)*)C[C@@H]2c3cccc4[nH]cc(c34)C[C@H]21; Phe(4-F) = N[C@@H](Cc1ccc(F)cc1)C(=O)O; 4Pal = N[C@@H](Cc1ccncc1)C(=O)O

Columns and labels:
hSSTR2 = hSSTR2 (Homo sapiens (Human), UniProt P30874); assay: Intracellular calcium mobilization assay (FLIPR Calcium 4), hSSTR2; format: cell-based; conditions: for Emax: read-out: hSSTR2 % Emax ± SEM; for improvement in EC50 over Reference Compound A: Student's t-test, one-tailed, p <0.05; for improvement in EC50 and/or % Emax over Reference Compound B: calcium mobilization;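 on all read-outs here: agonist activity read as intracellular calcium rise in cells expressing human SSTR2, loaded with a calcium-sensitive dye for 60 min at 37 °C, measured by FLIPR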
Chain of hSSTR2 (P30874 whole entry): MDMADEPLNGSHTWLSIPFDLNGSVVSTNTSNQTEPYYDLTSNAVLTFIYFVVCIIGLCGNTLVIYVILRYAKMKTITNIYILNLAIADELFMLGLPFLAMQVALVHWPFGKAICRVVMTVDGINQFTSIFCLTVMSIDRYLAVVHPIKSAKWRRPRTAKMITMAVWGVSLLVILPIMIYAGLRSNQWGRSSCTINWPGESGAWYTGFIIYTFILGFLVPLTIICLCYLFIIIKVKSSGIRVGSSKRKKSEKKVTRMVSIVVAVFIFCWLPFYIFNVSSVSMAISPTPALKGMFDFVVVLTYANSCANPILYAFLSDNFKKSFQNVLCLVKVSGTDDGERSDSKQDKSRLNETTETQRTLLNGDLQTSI
Method: (§1) The ability of select compounds according to the present invention to activate hSSTR2 and hDRD2 was determined by the intracellular calcium mobilization assay using FLIPR Calcium 4 assay kit (Molecular Devices).
(§2) Cells expressing hSSTR2 or hDRD2 were plated in 384-well microplates in tissue culture media and incubated for 16-24 hours at 37° C. in a humidified atmosphere with 5% CO2. Medium was replaced by loading buffer containing Hank's buffered saline, 20 mM HEPES, 2.5 mM probenecid and Calcium 4 dye, and the plates were incubated at 37° C. for 60 minutes.

hDRD2 = hDRD2 (Homo sapiens (Human), UniProt P14416); assay: cell-based; conditions: for Emax: read-out: hDRD2 % Emax ± SEM
Method: as §1, §2

[1] = maximal effect in percentage of the maximal effect of SRIF-14

Molecule: CC(=O)N(CCC(=O)NC(CN[C@@H]1CCCCNC(=O)[C@H](Cc2ccc(F)cc2)NC(=O)[C@H]([C@@H](C)O)NC(=O)[C@H](CCCCN)NC(=O)[C@@H](Cc2c[nH]c3ccccc23)NC(=O)[C@H](Cc2ccccc2)NC(=O)[C@H](Cc2ccccc2)NC(=O)[C@H](CCCNC(=N)N)NC1=O)Cc1ccc(O)cc1)C[C@@H]1C[C@@H]2c3cccc4[nH]cc(c34)C[C@H]2N(C)C1 (single isomer, unassigned) [Compound 27, 3-[N-acetyl-N-(D-6-methyl-8β-ergolinylmethyl)]-aminopropionyl-Tyr-psi(CH2NH)-cyclo(DLys-Arg-Phe-Phe-DTrp-Lys-Thr-4FPhe)]
- EC50 (hSSTR2): 11.4 ± 2 nM
- Emax (hSSTR2): 95.9 ± 2.4%
- EC50 (hDRD2): 50.7 ± 6.8 nM

Molecule: CC(=O)N(CCCNC(CN[C@@H]1CCCCNC(=O)[C@H](Cc2ccc(F)cc2)NC(=O)[C@H]([C@@H](C)O)NC(=O)[C@H](CCCCN)NC(=O)[C@@H](Cc2c[nH]c3ccccc23)NC(=O)[C@H](Cc2ccccc2)NC(=O)[C@H](Cc2ccccc2)NC(=O)[C@H](CCCNC(=N)N)NC1=O)Cc1ccc(O)cc1)C[C@@H]1C[C@@H]2c3cccc4[nH]cc(c34)C[C@H]2N(C)C1 (single isomer, unassigned) [Compound 28A, 3-[N-acetyl-N-(D-6-methyl-8β-ergolinylmethyl)]-aminopropionyl-psi(CH2NH)-Tyr-psi(CH2NH)-cyclo(DLys-Arg-Phe-Phe-DTrp-Lys-Thr-4FPhe)]
- EC50 (hSSTR2): 14.9 ± 6.3 nM
- Emax (hSSTR2): 109 ± 20%
- EC50 (hDRD2): 65.5 ± 3.6 nM

Molecule: C[C@@H](O)[C@@H]1NC(=O)[C@H](CCCCN)NC(=O)[C@@H](Cc2c[nH]c3ccccc23)NC(=O)[C@H](Cc2ccccc2)NC(=O)[C@H](Cc2ccccc2)NC(=O)[C@H](CCCNC(=N)N)NC(=O)[C@H](NCCC[C@@H]2C[C@@H]3c4cccc5[nH]cc(c45)C[C@H]3N(C)C2)CCCCNC(=O)[C@H](Cc2ccc(F)cc2)NC1=O [Compound 1, (D-6-methyl-8β-ergolinyl)-propionyl-psi(CH2NH)-cyclo(DLys-Arg-Phe-Phe-DTrp-Lys-Thr-4FPhe)]
- Emax (hSSTR2): 98.7%
- Emax (hDRD2): 102.1 ± 0.4%

Molecule: C[C@@H](O)[C@@H]1NC(=O)[C@H](CCCCN)NC(=O)[C@@H](Cc2c[nH]c3ccccc23)NC(=O)[C@H](Cc2ccccc2)NC(=O)[C@H](Cc2ccccc2)NC(=O)[C@H](CCCNC(=N)N)NC(=O)[C@H](NCCSC[C@@H]2C[C@@H]3c4cccc5[nH]cc(c45)C[C@H]3N(C)C2)CCCCNC(=O)[C@H](Cc2ccc(F)cc2)NC1=O [Compound 6, Dop1-psi(CH2NH)-cyclo(DLys-Arg-Phe-Phe-DTrp-Lys-Thr-4FPhe)]
- improvement in EC50 over Reference Compound A (hSSTR2): statistically significant improvement
- Emax (hSSTR2): 99.1 ± 0.6%
- Emax (hDRD2): 88.3 ± 5.1%

Molecule: C[C@@H](O)[C@@H]1NC(=O)[C@H](CCCCN)NC(=O)[C@@H](Cc2c[nH]c3ccccc23)NC(=O)[C@H](Cc2ccncc2)NC(=O)[C@H](Cc2ccccc2)NC(=O)[C@H](CCCNC(=N)N)NC(=O)[C@H](NCCSC[C@@H]2C[C@@H]3c4cccc5[nH]cc(c45)C[C@H]3N(C)C2)CCCCNC(=O)[C@H](Cc2ccc(O)cc2)NC1=O [Compound 7, Dop1-psi(CH2NH)-cyclo(DLys-Arg-Phe-4Pal-DTrp-Lys-Thr-Tyr)]
- improvement in EC50 over Reference Compound A (hSSTR2): statistically significant improvement
- Emax (hSSTR2): 96.9 ± 2.5%
- Emax (hDRD2): 102 ± 5%

Molecule: CC(=O)N(CCCN(C(C)=O)[C@@H]1CCCCNC(=O)[C@H](Cc2ccc(F)cc2)NC(=O)[C@H]([C@@H](C)O)NC(=O)[C@H](CCCCN)NC(=O)[C@@H](Cc2c[nH]c3ccccc23)NC(=O)[C@H](Cc2ccccc2)NC(=O)[C@H](Cc2ccccc2)NC(=O)[C@H](CCCNC(=N)N)NC1=O)C[C@@H]1C[C@@H]2c3cccc4[nH]cc(c34)C[C@H]2N(C)C1 [Compound 28, 3-[N-acetyl-N-(D-6-methyl-8β-ergolinylmethyl)]-aminopropionyl-psi(CH2NAc)-cyclo(DLys-Arg-Phe-Phe-DTrp-Lys-Thr-4FPhe)]
- Emax (hSSTR2): 98.7 ± 2%

Molecule: C[C@@H](O)[C@@H]1NC(=O)[C@H](CCCCN)NC(=O)[C@@H](Cc2c[nH]c3ccccc23)NC(=O)[C@H](Cc2ccncc2)NC(=O)[C@H](Cc2ccccc2)NC(=O)[C@H](CCCNC(=N)N)NC(=O)[C@H](N(CCSC[C@@H]2C[C@@H]3c4cccc5[nH]cc(c45)C[C@H]3N(C)C2)CCSC[C@@H]2C[C@@H]3c4cccc5[nH]cc(c45)C[C@H]3N(C)C2)CCCCNC(=O)[C@H](Cc2ccccc2)NC1=O [Compound 29, bis[Dop1-psi(CH2N)]-cyclo(DLys-Arg-Phe-4Pal-DTrp-Lys-Thr-Phe)] (RF[4Pal][dW]KTF; linker N-C via X1)
- improvement in EC50 over Reference Compound A (hSSTR2): statistically significant improvement
- Emax (hSSTR2): 97 ± 4.9%

Molecule: CC(=O)N(CCCN[C@@H]1CCCCNC(=O)[C@H](Cc2ccc(F)cc2)NC(=O)[C@H]([C@@H](C)O)NC(=O)[C@H](CCCCN)NC(=O)[C@@H](Cc2c[nH]c3ccccc23)NC(=O)[C@H](Cc2ccccc2)NC(=O)[C@H](Cc2ccccc2)NC(=O)[C@H](CCCNC(=N)N)NC1=O)C[C@@H]1C[C@@H]2c3cccc4[nH]cc(c34)C[C@H]2N(C)C1 [Compound 29A, 3-[N-acetyl-(D-6-methyl-8β-ergolinylmethyl)]-aminopropionyl-psi(CH2NH)-cyclo(DLys-Arg-Phe-Phe-DTrp-Lys-Thr-4FPhe)]
- Emax (hSSTR2): 100 ± 23.2%

Molecule: C[C@@H](O)[C@@H]1NC(=O)[C@H](CCCCN)NC(=O)[C@@H](Cc2c[nH]c3ccccc23)NC(=O)[C@H](Cc2ccccc2)NC(=O)[C@H](Cc2ccccc2)NC(=O)[C@H](CCCNC(=N)N)NC(=O)[C@@H](NC[C@H](Cc2ccc(O)cc2)NC(=O)CSC[C@@H]2C[C@@H]3c4cccc5[nH]cc(c45)C[C@H]3N(C)C2)CCCCNC(=O)[C@H](Cc2ccccc2)NC1=O [Compound 31, Dop1-Tyr-psi(CH2NH)-cyclo(Lys-Arg-Phe-Phe-DTrp-Lys-Thr-Phe)]
- Emax (hSSTR2): 85.1 ± 4.7%

Molecule: C[C@@H](O)[C@@H]1NC(=O)[C@H](CCCCN)NC(=O)[C@@H](Cc2c[nH]c3ccccc23)NC(=O)[C@H](Cc2ccccc2)NC(=O)[C@H](Cc2ccccc2)NC(=O)[C@H](CCCNC(=N)N)NC(=O)[C@H](NC[C@H](Cc2ccc(O)cc2)NC(=O)CSC[C@@H]2C[C@@H]3c4cccc5[nH]cc(c45)C[C@H]3N(C)C2)CCCCNC(=O)[C@H](Cc2ccccc2)NC1=O [Compound 32, Dop1-Tyr-psi(CH2NH)-cyclo(DLys-Arg-Phe-Phe-DTrp-Lys-Thr-Phe)]
- improvement in EC50 and/or % Emax over Reference Compound B (hSSTR2): statistically significant improvement
- Emax (hSSTR2): 87.5 ± 4.3%

Molecule: C[C@@H](O)[C@@H]1NC(=O)[C@H](CCCCN)NC(=O)[C@@H](Cc2c[nH]c3ccccc23)NC(=O)[C@H](Cc2ccccc2)NC(=O)[C@H](Cc2ccccc2)NC(=O)[C@H](CCCNC(=N)N)NC(=O)[C@H](NC[C@H](Cc2ccc(O)cc2)NC(=O)CSC[C@@H]2C[C@@H]3c4cccc5[nH]cc(c45)C[C@H]3N(C)C2)CCCCNC(=O)[C@H](Cc2ccc(O)cc2)NC1=O [Compound 33, Dop1-Tyr-psi(CH2NH)-cyclo(DLys-Arg-Phe-Phe-DTrp-Lys-Thr-Tyr)]
- improvement in EC50 and/or % Emax over Reference Compound B (hSSTR2): statistically significant improvement
- Emax (hSSTR2): 95.7 ± 5.1%

Molecule: C[C@@H](O)[C@@H]1NC(=O)[C@H](CCCCN)NC(=O)[C@@H](Cc2c[nH]c3ccccc23)NC(=O)[C@H](Cc2ccccc2)NC(=O)[C@H](Cc2ccccc2)NC(=O)[C@H](CCCNC(=N)N)NC(=O)[C@H](NC(=O)CSC[C@@H]2C[C@@H]3c4cccc5[nH]cc(c45)C[C@H]3N(C)C2)CCCCNC(=O)[C@H](Cc2ccc(F)cc2)NC1=O [Compound 34, Dop1-cyclo(DLys-Arg-Phe-Phe-DTrp-Lys-Thr-4FPhe)] (X2-[dK]RFF[dW]KT[Phe(4-F)]; lactam 1-C)
- Emax (hSSTR2): 95.1 ± 7.1%

Molecule: C[C@@H](O)[C@@H]1NC(=O)[C@H](CCCCN)NC(=O)[C@@H](Cc2c[nH]c3ccccc23)NC(=O)[C@H](Cc2ccncc2)NC(=O)[C@H](Cc2ccccc2)NC(=O)[C@H](CCCNC(=N)N)NC(=O)[C@H](N(CCSC[C@@H]2C[C@@H]3c4cccc5[nH]cc(c45)C[C@H]3N(C)C2)CCSC[C@@H]2C[C@@H]3c4cccc5[nH]cc(c45)C[C@H]3N(C)C2)CCCCNC(=O)[C@H](Cc2ccc(O)cc2)NC1=O [Compound 35, bis[Dop1-psi(CH2N)]-cyclo(DLys-Arg-Phe-4Pal-DTrp-Lys-Thr-Tyr)] (RF[4Pal][dW]KTY; linker N-C via X1)
- Emax (hSSTR2; [1]): 91.2 ± 11%

Molecule: C[C@@H](O)[C@@H]1NC(=O)[C@H](CCCCN)NC(=O)[C@@H](Cc2c[nH]c3ccccc23)NC(=O)[C@H](Cc2ccccc2)NC(=O)[C@H](Cc2ccccc2)NC(=O)[C@H](CCCNC(=N)N)NC(=O)[C@H](N(CCSC[C@@H]2C[C@@H]3c4cccc5[nH]cc(c45)C[C@H]3N(C)C2)CCSC[C@@H]2C[C@@H]3c4cccc5[nH]cc(c45)C[C@H]3N(C)C2)CCCCNC(=O)[C@H](Cc2ccc(F)cc2)NC1=O [Compound 39, bis[Dop1-psi(CH2N)]-cyclo(DLys-Arg-Phe-Phe-DTrp-Lys-Thr-4FPhe)] (RFF[dW]KT[Phe(4-F)]; linker N-C via X1)
- Emax (hSSTR2): 87.1 ± 4.7%

Molecule: C[C@@H](O)[C@@H]1NC(=O)[C@H](CCCCN)NC(=O)[C@@H](Cc2c[nH]c3ccccc23)NC(=O)[C@H](Cc2ccccc2)NC(=O)[C@H](Cc2ccccc2)NC(=O)[C@H](CCCNC(=N)N)NC(=O)[C@H](NCCCS(=O)(=O)C[C@@H]2C[C@@H]3c4cccc5[nH]cc(c45)C[C@H]3N(C)C2)CCCCNC(=O)[C@H](Cc2ccc(F)cc2)NC1=O [Compound 48, (D-6-methyl-8β-ergolinylmethyl)-sulfonylpropyl-cyclo(DLys-Arg-Phe-Phe-DTrp-Lys-Thr-4FPhe)]
- Emax (hSSTR2): 95.5 ± 11.9%

Molecule: Dop1-cyclo(DLys-Arg-Phe-Phe-DTrp-Lys-Thr-Phe) [Compound 44]
- hSSTR2 % Emax ± SEM (hSSTR2; [1]): 97.1 ± 5.9%
